{
  "source": "patent US9340538B2",
  "about": "“Dihydropyrimidine compounds and their application in pharmaceuticals” (SUNSHINE LAKE PHARMA CO., LTD., priority 2013, dated 2016)",
  "data": [
    {"tested_on": "HBV", "test": "In-vitro anti-HBV activity in stable HBV-producing cell line (HepG2.2.15), HBV DNA in culture fluid by qPCR", "assay_type": "cell-based", "details": "Hepatitis B virus, 168 h; 500 nmol final concentration, HepG2.2.15 cells, HBV DNA in culture media on day 7 post seeding, vs DMSO control; read-out: HBV (% Inh.) (500 nmol)", "method": "(§1) In-Vitro Anti-HBV Activity of Compounds in Stable HBV-Producing Cell Line (HepG2.2.15)\n(§2) HBV DNA contents in cell culture fluid were detected by the qPCR-based assay and percents of HBV inhibition by compounds (% Inh) were calculated. Specific procedures are as follows:\n(§3) HepG2.2.15 cells were seeded into each well of 96-well plates, 40,000 cells per well. Cells were treated with cell culture medium containing compounds 24 hours after cell seeding. Each compound to detected percent inhibition was in duplicate and the final concentration of each compound was 500 nmol in each well. The compound-containing mediums were refreshed on day 4 post cell seeding. Culture media were collected from the HepG2.2.15 plates on day 7 post cell seeding followed by HBV DNA extraction.\n(§4) HBV DNA extraction: using QIAamp 96 DNA Blood Kit (QIAGEN 51161).\n(§5) PCR for quantification: PCR mix was prepared according to PCR system; PCR mix was dispensed to 384-well optical reaction plates (special for quantification); The standard diluted proportionally was added; The sample was added; The plates were sealed with optical adhesive film; PCR system was performed according to programs.\n(§6) Percent of HBV inhibition of DNA replication by compound was calculated using the following equation: % Inh.=[1-HBV DNA quantity of sample/HBV DNA quantity of DMSO control]*100. II. Assay Results", "units": {"inhibition at 0.5 µM": "%"}, "values": [
      {"smiles": "CCOC(=O)C1=C(CN2CCO[C@H](COC(=O)C(N)C(C)C)C2)NC(c2nccs2)=NC1c1ccc(F)cc1Br", "note": "(stereo in doubt) [Example 126, Ethyl 6-(((S)-2-((((S)-2-amino-3-methylbutanoyl)oxy)methyl)morpholino)methyl)-4-(2-bromo-4-fluorophenyl)-2-(thiazol-2-yl)-1,4-dihydropyrimidine-5-carboxylate]", "inhibition at 0.5 µM": 94.7},
      {"smiles": "CCOC(=O)C1=C(CN2CCOCC2C(=O)O)NC(c2nccs2)=NC1c1ccccc1C(F)(F)F", "note": "(centres unmarked) [Example 1, 4-((5-(ethoxycarbonyl)-2-(thiazol-2-yl)-6-(2-(trifluoromethyl)phenyl)-3,6-dihydropyrimidin-4-yl)methyl)morpholine-3-carboxylic acid]", "inhibition at 0.5 µM": 75.8},
      {"smiles": "CCOC(=O)C1=C(CN2CCOCC2C(=O)O)NC(c2nccs2)=NC1c1ccccc1[N+](=O)[O-]", "note": "(centres unmarked) [Example 2, 4-((5-(ethoxycarbonyl)-6-(2-nitrophenyl)-2-(thiazol-2-yl)-3,6-dihydropyrimidin-4-yl)methyl)morpholine-3-carboxylic acid]", "inhibition at 0.5 µM": 31.3},
      {"smiles": "CCOC(=O)C1=C(CN2CCOCC2C(=O)O)NC(c2nccs2)=NC1c1ccc(F)cc1Br", "note": "(centres unmarked) [Example 3, 4-((6-(2-bromo-4-fluorophenyl)-5-(ethoxycarbonyl)-2-(thiazol-2-yl)-3,6-dihydropyrimidin-4-yl)methyl)morpholine-3-carboxylic acid]", "inhibition at 0.5 µM": 84.5},
      {"smiles": "CCOC(=O)C1=C(CN2CCOCC2C(=O)O)NC(c2nccs2)=NC1c1ccc(F)cc1Cl", "note": "(centres unmarked) [Example 4, 4-((6-(2-chloro-4-fluorophenyl)-5-(ethoxycarbonyl)-2-(thiazol-2-yl)-3,6-dihydropyrimidin-4-yl)methyl)morpholine-3-carboxylic acid]", "inhibition at 0.5 µM": 90},
      {"smiles": "COC(=O)C1=C(CN2CCOCC2C(=O)O)NC(c2nccs2)=NC1c1ccc(F)cc1Br", "note": "(centres unmarked) [Example 6, 4-((6-(2-bromo-4-fluorophenyl)-5-(methoxycarbonyl)-2-(thiazol-2-yl)-3,6-dihydropyrimidin-4-yl)methyl)morpholine-3-carboxylic acid]", "inhibition at 0.5 µM": 99.9},
      {"smiles": "CCOC(=O)C1=C(CN2CCOC(C(=O)O)C2)NC(c2nccs2)=NC1c1ccc(F)cc1Cl", "note": "(centres unmarked) [Example 10, 4-((6-(2-chloro-4-fluorophenyl)-5-(ethoxycarbonyl)-2-(thiazol-2-yl)-3,6-dihydropyrimidin-4-yl)methyl)morpholine-2-carboxylic acid]", "inhibition at 0.5 µM": 89.7},
      {"smiles": "CCOC(=O)C1=C(CN2CCOC(C(=O)O)C2)NC(c2nccs2)=NC1c1ccc(Cl)cc1Cl", "note": "(centres unmarked) [Example 11, 4-((6-(2,4-dichlorophenyl)-5-(ethoxycarbonyl)-2-(thiazol-2-yl)-3,6-dihydropyrimidin-4-yl)methyl)morpholine-2-carboxylic acid]", "inhibition at 0.5 µM": 95.6},
      {"smiles": "COC(=O)C1=C(CN2CCOC(C(=O)O)C2)NC(c2nccs2)=NC1c1ccc(F)cc1Br", "note": "(centres unmarked) [Example 12, 4-((6-(2-bromo-4-fluorophenyl)-5-(methoxycarbonyl)-2-(thiazol-2-yl)-3,6-dihydropyrimidin-4-yl)methyl)morpholine-2-carboxylic acid]", "inhibition at 0.5 µM": 53.8},
      {"smiles": "COC(=O)C1=C(CN2CCOC(C(=O)O)C2)NC(c2nccs2)=NC1c1ccc(F)cc1Cl", "note": "(centres unmarked) [Example 13, 4-((6-(2-chloro-4-fluorophenyl)-5-(methoxycarbonyl)-2-(thiazol-2-yl)-3,6-dihydropyrimidin-4-yl)methyl)morpholine-2-carboxylic acid]", "inhibition at 0.5 µM": 54.5},
      {"smiles": "CCOC(=O)C1=C(CN2CC(C)(C)OC[C@H]2C(=O)O)NC(c2nccs2)=NC1c1ccc(Cl)cc1Cl", "note": "(stereo partly drawn) [Example 21, (3S)-4-((6-(2,4-dichlorophenyl)-5-(ethoxycarbonyl)-2-(thiazol-2-yl)-3,6-dihydropyrimidin-4-yl)methyl)-6,6-dimethylmorpholine-3-carboxylic acid]", "inhibition at 0.5 µM": 51.2},
      {"smiles": "CCOC(=O)C1=C(CN2CC(C)(C)OC[C@H]2C(=O)O)NC(c2nccs2)=NC1c1ccc(F)cc1Cl", "note": "(stereo partly drawn) [Example 23, (3S)-4-((6-(2-chloro-4-fluorophenyl)-5-(ethoxycarbonyl)-2-(thiazol-2-yl)-3,6-dihydropyrimidin-4-yl)methyl)-6,6-dimethylmorpholine-3-carboxylic acid]", "inhibition at 0.5 µM": 45},
      {"smiles": "CCOC(=O)C1=C(CN2CC(C)(C)OC[C@H]2C(=O)OC)NC(c2nccs2)=NC1c1ccc(Cl)cc1Cl", "note": "(stereo partly drawn) [Example 24, Methyl (3S)-4-((6-(2,4-dichlorophenyl)-5-(ethoxycarbonyl)-2-(thiazol-2-yl)-3,6-dihydropyrimidin-4-yl)methyl)-6,6-dimethylmorpholine-3-carboxylate]", "inhibition at 0.5 µM": 56.1},
      {"smiles": "CCOC(=O)C1=C(CN2CCOCC2C(N)=O)NC(c2nccs2)=NC1c1ccc(F)cc1Br", "note": "(centres unmarked) [Example 25, Ethyl 4-(2-bromo-4-fluorophenyl)-6-((3-carbamoylmorpholino)methyl)-2-(thiazol-2-yl)-1,4-dihydropyrimidine-5-carboxylate]", "inhibition at 0.5 µM": 91.9},
      {"smiles": "CCOC(=O)C1=C(CN2CCOCC2C(N)=O)NC(c2nccs2)=NC1c1ccc(F)cc1Cl", "note": "(centres unmarked) [Example 26, Ethyl 6-((3-carbamoylmorpholino)methyl)-4-(2-chloro-4-fluorophenyl)-2-(thiazol-2-yl)-1,4-dihydropyrimidine-5-carboxylate]", "inhibition at 0.5 µM": 96},
      {"smiles": "CCOC(=O)C1=C(CN2CCOCC2C(N)=O)NC(c2nccs2)=NC1c1ccc(Cl)cc1Cl", "note": "(centres unmarked) [Example 27, Ethyl 6-((3-carbamoylmorpholino)methyl)-4-(2,4-dichlorophenyl)-2-(thiazol-2-yl)-1,4-dihydropyrimidine-5-carboxylate]", "inhibition at 0.5 µM": 91.9},
      {"smiles": "CCOC(=O)C1=C(CN2CCOC[C@@H]2CO)NC(c2nccs2)=NC1c1ccc(F)cc1Br", "note": "(stereo partly drawn) [Example 40, Ethyl 4-(2-bromo-4-fluorophenyl)-6-(((S)-3-(hydroxymethyl)morpholino)methyl)-2-(thiazol-2-yl)-1,4-dihydropyrimidine-5-carboxylate]", "inhibition at 0.5 µM": 95},
      {"smiles": "CCOC(=O)C1=C(CN2CCOC[C@H]2COC(=O)[C@@H](N)C(C)C)NC(c2nccs2)=NC1c1ccc(F)cc1Br", "note": "(stereo partly drawn) [Example 49, Ethyl 6-(((S)-3-((((S)-2-amino-3-methylbutanoyl)oxy)methyl)morpholino)methyl)-4-(2-bromo-4-fluorophenyl)-2-(thiazol-2-yl)-1,4-dihydropyrimidine-5-carboxylate]", "inhibition at 0.5 µM": 96.2},
      {"smiles": "CCOC(=O)C1=C(CN2CCOC[C@H]2C(=O)NO)NC(c2nccs2)=NC1c1ccc(F)cc1Br", "note": "(stereo partly drawn) [Example 52, Ethyl 4-(2-bromo-4-fluorophenyl)-6-(((S)-3-(hydroxycarbamoyl)morpholino)methyl)-2-(thiazol-2-yl)-1,4-dihydropyrimidine-5-carboxylate]", "inhibition at 0.5 µM": 89.5},
      {"smiles": "CCOC(=O)C1=C(CN2CCOC[C@H]2C(=O)NOC)NC(c2nccs2)=NC1c1ccc(F)cc1Br", "note": "(stereo partly drawn) [Example 53, Ethyl 4-(2-bromo-4-fluorophenyl)-6-(((S)-3-(methoxycarbamoyl)morpholino)methyl)-2-(thiazol-2-yl)-1,4-dihydropyrimidine-5-carboxylate]", "inhibition at 0.5 µM": 92.6},
      {"smiles": "CCOC(=O)C1=C(CN2CCOC[C@H]2C(=O)NCCO)NC(c2nccs2)=NC1c1ccc(F)cc1Br", "note": "(stereo partly drawn) [Example 54, Ethyl 4-(2-bromo-4-fluorophenyl)-6-(((S)-3-((2-hydroxyethyl)carbamoyl)morpholino)methyl)-2-(thiazol-2-yl)-1,4-dihydropyrimidine-5-carboxylate]", "inhibition at 0.5 µM": 91}
    ]},
    {"tested_on": "HBV", "test": "In-vitro anti-HBV activity in stable HBV-producing cell line (HepG2.2.15), HBV DNA in culture fluid by qPCR", "assay_type": "cell-based", "details": "Hepatitis B virus, HepG2.2.15, 168 h, read-out: HBV (% Inh.) (500 nmol)", "method": "as §1, §2, §3, §4, §5, §6", "units": {"inhibition at 0.5 µM": "%"}, "values": [
      {"smiles": "CCOC(=O)C1=C(CN2CCOCC2C(=O)O)NC(c2nccs2)=NC1c1ccc(Cl)cc1Cl", "note": "(centres unmarked) [Example 5, 4-((6-(2,4-dichlorophenyl)-5-(ethoxycarbonyl)-2-(thiazol-2-yl)-3,6-dihydropyrimidin-4-yl)methyl)morpholine-3-carboxylic acid]", "inhibition at 0.5 µM": 95},
      {"smiles": "CCOC(=O)C1=C(CN2CCOC(C(=O)O)C2)NC(c2nccs2)=NC1c1ccc(F)cc1Br", "note": "(centres unmarked) [Example 9, 4-((6-(2-bromo-4-fluorophenyl)-5-(ethoxycarbonyl)-2-(thiazol-2-yl)-3,6-dihydropyrimidin-4-yl)methyl)morpholine-2-carboxylic acid]", "inhibition at 0.5 µM": 93.1},
      {"smiles": "CCOC(=O)C1=C(CN2CCO[C@H](C)[C@H]2C(=O)O)NC(c2nccs2)=NC1c1ccc(F)cc1Br", "note": "(stereo partly drawn) [Example 34, (2R,3S)-4-((6-(2-bromo-4-fluorophenyl)-5-(ethoxycarbonyl)-2-(thiazol-2-yl)-3,6-dihydropyrimidin-4-yl)methyl)-2-methylmorpholine-3-carboxylic acid]", "inhibition at 0.5 µM": 94.3},
      {"smiles": "CCOC(=O)C1=C(CN2CCOC[C@@H]2CO)NC(c2nccs2)=NC1c1ccc(Cl)cc1Cl", "note": "(stereo partly drawn) [Example 42, Ethyl 4-(2,4-dichlorophenyl)-6-(((S)-3-(hydroxymethyl)morpholino)methyl)-2-(thiazol-2-yl)-1,4-dihydropyrimidine-5-carboxylate]", "inhibition at 0.5 µM": 91.9},
      {"smiles": "CCOC(=O)C1=C(CN2CCOCC2C(=O)OC)NC(c2nccs2)=NC1c1ccc(F)cc1Br", "note": "(centres unmarked) [Example 51, Methyl 4-((6-(2-bromo-4-fluorophenyl)-5-(ethoxycarbonyl)-2-(thiazol-2-yl)-3,6-dihydropyrimidin-4-yl)methyl)morpholine-3-carboxylate]", "inhibition at 0.5 µM": 91.3}
    ]}
  ]
}
